“And” between values parts separate entries of the source, which are not always exact repeats. Equal values may be shown once. No end group written: not given here.
Test system: murine B16 melanoma cells
Assay: Anti-tumor efficacy (tumor size, tumor volume, tumor weight) in C57BL/6 mice bearing subcutaneous B16 melanoma
Assay type: in vivo
Conditions: for Tumor weights / PI (TW), percent inhibition of tumor weight vs vehicle: Day 17
Experimental: In this study, the anti-tumor effect of the combined treatment of thymosin alpha-1 (TA-1), Paclitaxel (Pac) and Elesclomol (Ele) was evaluated in C57BL/6 mice bearing B16 melanoma cells. The toxic effects of the dosing regimens were also monitored. A total of 60 mice were implanted subcutaneously with murine B16 cells, followed by treatment with TA-1 or Pac/Ele alone or in combination for 14 consecutive days. TA-1 was given daily via s.c., while Pac and Ele were co-i.v. administered on Day 1, 7 and 13. In total, 6 groups were used: Group 1: vehicle; Group 2: TA-1 6 mg/kg; Group 3: Pac 10 mg/kg+Ele 10 mg/kg; Group 4: Pac 30 mg/kg+Ele 30 mg/kg; Group 5: TA-1 6 mg/kg+Pac 10 mg/kg+Ele 10 mg/kg; and Group 6: TA-1 6 mg/kg+Pac 30 mg/kg+Ele 30 mg/kg. Tumor volume and body weight were measured every three days, and tumor weights were measured on Day 17 at the end of the study.
Murine B16 melanoma cells were thawed from the stock of Cell Culture Center, Institute of Basic Medical Sciences, Peking Union Medical College and Chinese Academy of Medical Sciences (PUMC & CAMS, Beijing, P. R. China). The tumor cells were adapted in C57BL/6 mice before use in the experiment (Refer to Section 4.3.1 for details on cell adaptation).
Using aseptic tissue culture procedures, one vial of B16 melanoma cells was removed from the liquid nitrogen stock, and placed into a 37° C. water bath. Gentle swirling was conducted until the content of the vial was thawed. Once thawed, the cells were immediately centrifuged with a TD5A-WS centrifuge at 1000 rpm, 20-25° C., 5 min. After centrifugation, the cells were suspended in […] normal saline (NS) and subcutaneously injected into 10 mice (0.1 mL/mouse, about 1×10^6 cells). After 7-10 days, when the tumor diameter was approximately 1 cm, the animals were euthanized with CO2 overdose and the tumors excised. The procedure was repeated with 20 mice to generate a sufficient number of B16 melanoma cells with adequate transplantability.
On the day of tumor implantation, approximately 1×10^6 cells in 0.1 mL were subcutaneously injected on the right axillary area of each mouse. The day of tumor implantation was defined as Day 0.
On Day 1, the animals were randomly assigned into different weight-matched groups, and dosing was started using the regimen according to Table 2. Briefly, TA-1 was administered once daily via subcutaneous (s.c.) injection for 14 consecutive days at a site different from that of tumor cell implantation, while Pac and Ele was administered on Days 1, 7, and 13 via an intravenous (i.v.) injection.
From Day 1 to Day 15, mortality and moribundity were checked twice daily, the body weights were recorded once every 3 days, and tumors were measured using a caliper once every 3 days. At the end of the study (Day 17), the animals were euthanized by CO2 asphyxiation, and the tumors were excised and weighed.
Based on the tumor size, the tumor volume (TV) was calculated with the formula: [TV=(Length×Width×Width)/2]. And the percent inhibition (PI) of TV (PITV) was calculated according to the equation below:
PITV(%)=(TV vehicle−TVdrug treated)/TV vehicle×100
The anti-tumor effect of the test article was further evaluated with tumor weight (TW) measured on day of necropsy (Day 17). The PI of TW was calculated using the equation below:
PITW(%)=100×(TW vehicle−TW drug treated)/TW vehicle
The calculations of PITV and PITW were performed using an Excel spreadsheet and reviewed by the Study Director and Study Monitor.
Inter-group comparison was performed in terms of tumor volume, tumor weight and body weight, using a student's t test. P values of less than 0.05 were considered to be statistically significant.

[1] = Day 3, individual animals F1-F5, M1-M5, low-dose arms: TA-1 6 mg/kg, Pac 10 + Ele 10 mg/kg
[2] = Day 3, low-dose arms: TA-1 6 mg/kg s.c. daily, Pac 10 + Ele 10 mg/kg co-i.v. Days 1, 7, 13
[3] = Day 6, individual animals F1-F5, M1-M5, low-dose arms: TA-1 6 mg/kg, Pac 10 + Ele 10 mg/kg
[4] = Day 6, low-dose arms: TA-1 6 mg/kg s.c. daily, Pac 10 + Ele 10 mg/kg co-i.v. Days 1, 7, 13
[5] = Day 9, individual animals F1-F5, M1-M5, low-dose arms: TA-1 6 mg/kg, Pac 10 + Ele 10 mg/kg
[6] = Day 9, low-dose arms: TA-1 6 mg/kg s.c. daily, Pac 10 + Ele 10 mg/kg co-i.v. Days 1, 7, 13
[7] = Day 12, low-dose arms: TA-1 6 mg/kg s.c. daily, Pac 10 + Ele 10 mg/kg co-i.v. Days 1, 7, 13
[8] = Day 15, low-dose arms: TA-1 6 mg/kg s.c. daily, Pac 10 + Ele 10 mg/kg co-i.v. Days 1, 7, 13

Substance: thymosin alpha 1 (SDAAVDTSSEITTKDLKEKKEVVEEAEN; ends and bridges not checked; UniProt P06454 2-29, looked up) [TA-1, 28 amino acid peptide with a molecular weight of 3108; immunomodulator]
- Tumor measurements, L (length) [1]: 0.1 cm (2×) and 0.2 cm (2×)
- Tumor measurements, W (width) [1]: 0.1 cm (2×) and 0.2 cm (2×)
- Tumor volumes (Day 3, individual animals F1-F5, M1-M5, low-dose arms: TA-1 6 mg/kg, Pac 10 + Ele 10 mg/kg, female mice): 0 cm^3 (4×) and 0.0005 cm^3
- Tumor volumes (Day 3, individual animals F1-F5, M1-M5, low-dose arms: TA-1 6 mg/kg, Pac 10 + Ele 10 mg/kg, male mice): 0 cm^3 (2×) and 0.004 cm^3 (2×) and 0.0005 cm^3
- PI (TV), percent inhibition of tumor volume vs vehicle [2]: −50.00%
- Tumor Volume (Mean ± SD) [2]: 0.0009 ± 0.0016 cm^3
- Tumor measurements, L (length) [3]: 0.3 cm and 0.2 cm (2×) and 0.1 cm
- Tumor measurements, W (width) [3]: 0.3 cm and 0.2 cm (2×) and 0.1 cm
- Tumor volumes (Day 6, individual animals F1-F5, M1-M5, low-dose arms: TA-1 6 mg/kg, Pac 10 + Ele 10 mg/kg, female mice): 0 cm^3 (4×) and 0.0135 cm^3
- Tumor volumes (Day 6, individual animals F1-F5, M1-M5, low-dose arms: TA-1 6 mg/kg, Pac 10 + Ele 10 mg/kg, male mice): 0 cm^3 (2×) and 0.004 cm^3 (2×) and 0.0005 cm^3
- PI (TV), percent inhibition of tumor volume vs vehicle [4]: 58.49%
- Tumor Volume (Mean ± SD) [4]: 0.0022 ± 0.0043 cm^3
- Tumor volumes (Day 9, animal F1): 0.0005 cm^3
- Tumor volumes (Day 9, animal F2): 0 cm^3
- Tumor volumes (Day 9, animal F3): 0 cm^3
- Tumor volumes (Day 9, animal F4): 0 cm^3
- Tumor volumes (Day 9, animal F5): 0.0135 cm^3
- Tumor volumes (Day 9, animal M1): 0.004 cm^3
- Tumor volumes (Day 9, animal M2): 0.004 cm^3
- Tumor volumes (Day 9, animal M3): 0.004 cm^3
- Tumor volumes (Day 9, animal M4): 0 cm^3
- Tumor volumes (Day 9, animal M5): 0 cm^3
- Tumor measurements, L (length) [5]: 0.3 cm and 0.2 cm (3×) and 0.1 cm
- Tumor measurements, W (width) [5]: 0.3 cm and 0.2 cm (3×) and 0.1 cm
- PI (TV), percent inhibition of tumor volume vs vehicle [6]: 88.26%
- Tumor Volume (Mean ± SD) [6]: 0.0026 ± 0.0043 cm^3
- Tumor measurements L (Day 12, animal F1): 0.1 cm
- Tumor measurements W (Day 12, animal F1): 0.1 cm
- Tumor volumes (Day 12, animal F1): 0.0005 cm^3
- Tumor measurements L (Day 12, animal F2): 0.2 cm
- Tumor measurements W (Day 12, animal F2): 0.2 cm
- Tumor volumes (Day 12, animal F2): 0.004 cm^3
- Tumor measurements L (Day 12, animal F3): 0.2 cm
- Tumor measurements W (Day 12, animal F3): 0.2 cm
- Tumor volumes (Day 12, animal F3): 0.004 cm^3
- Tumor measurements L (Day 12, animal F4): 0.1 cm
- Tumor measurements W (Day 12, animal F4): 0.1 cm
- Tumor volumes (Day 12, animal F4): 0.0005 cm^3
- Tumor measurements L (Day 12, animal F5): 0.3 cm
- Tumor measurements W (Day 12, animal F5): 0.3 cm
- Tumor volumes (Day 12, animal F5): 0.0135 cm^3
- Tumor measurements L (Day 12, animal M1): 0.2 cm
- Tumor measurements W (Day 12, animal M1): 0.2 cm
- Tumor volumes (Day 12, animal M1): 0.004 cm^3
- Tumor measurements L (Day 12, animal M2): 0.2 cm
- Tumor measurements W (Day 12, animal M2): 0.2 cm
- Tumor volumes (Day 12, animal M2): 0.004 cm^3
- Tumor measurements L (Day 12, animal M3): 0.2 cm
- Tumor measurements W (Day 12, animal M3): 0.2 cm
- Tumor volumes (Day 12, animal M3): 0.004 cm^3
- Tumor measurements L (Day 12, animal M4): 0.2 cm
- Tumor measurements W (Day 12, animal M4): 0.2 cm
- Tumor volumes (Day 12, animal M4): 0.004 cm^3
- Tumor measurements L (Day 12, animal M5): 0.1 cm
- Tumor measurements W (Day 12, animal M5): 0.1 cm
- Tumor volumes (Day 12, animal M5): 0.0005 cm^3
- PI (TV), percent inhibition of tumor volume vs vehicle [7]: 96.28%
- Tumor Volume (Mean ± SD) [7]: 0.0039 ± 0.0038 cm^3
- Tumor measurements L (Day 15, animal F1): 0.3 cm
- Tumor measurements W (Day 15, animal F1): 0.3 cm
- Tumor volumes (Day 15, animal F1): 0.0135 cm^3
- Tumor measurements L (Day 15, animal F2): 0.3 cm
- Tumor measurements W (Day 15, animal F2): 0.3 cm
- Tumor volumes (Day 15, animal F2): 0.0135 cm^3
- Tumor measurements L (Day 15, animal F3): 0.5 cm
- Tumor measurements W (Day 15, animal F3): 0.5 cm
- Tumor volumes (Day 15, animal F3): 0.0625 cm^3
- Tumor measurements L (Day 15, animal F4): 0.3 cm
- Tumor measurements W (Day 15, animal F4): 0.3 cm
- Tumor volumes (Day 15, animal F4): 0.0135 cm^3
- Tumor measurements L (Day 15, animal F5): 0.6 cm
- Tumor measurements W (Day 15, animal F5): 0.6 cm
- Tumor volumes (Day 15, animal F5): 0.108 cm^3
- Tumor measurements L (Day 15, animal M1): 0.5 cm
- Tumor measurements W (Day 15, animal M1): 0.5 cm
- Tumor volumes (Day 15, animal M1): 0.0625 cm^3
- Tumor measurements L (Day 15, animal M2): 0.4 cm
- Tumor measurements W (Day 15, animal M2): 0.4 cm
- Tumor volumes (Day 15, animal M2): 0.032 cm^3
- Tumor measurements L (Day 15, animal M3): 0.6 cm
- Tumor measurements W (Day 15, animal M3): 0.6 cm
- Tumor volumes (Day 15, animal M3): 0.108 cm^3
- Tumor measurements L (Day 15, animal M4): 0.5 cm
- Tumor measurements W (Day 15, animal M4): 0.5 cm
- Tumor volumes (Day 15, animal M4): 0.0625 cm^3
- Tumor measurements L (Day 15, animal M5): 0.5 cm
- Tumor measurements W (Day 15, animal M5): 0.5 cm
- Tumor volumes (Day 15, animal M5): 0.0625 cm^3
- PI (TV), percent inhibition of tumor volume vs vehicle [8]: 85.60%
- Tumor Volume (Mean ± SD) [8]: 0.0539 ± 0.0358 cm^3
- Tumor Weight (Mean ± SD) (Day 17 (necropsy), low-dose arms: TA-1 6 mg/kg s.c. daily, Pac 10 + Ele 10 mg/kg co-i.v. Days 1, 7, 13): 0.88 ± 0.34 g
- Tumor weights (animal F1): 0.64 g
- Tumor weights (animal F2): 0.5 g
- Tumor weights (animal F3): 1.2 g
- Tumor weights (animal F4): 0.62 g
- Tumor weights (animal F5): 1.45 g
- Tumor weights (animal M1): 0.69 g
- Tumor weights (animal M2): 0.56 g
- Tumor weights (animal M3): 1.36 g
- Tumor weights (animal M4): 0.92 g
- Tumor weights (animal M5): 0.89 g
- PI (TW), percent inhibition of tumor weight vs vehicle (low-dose arms: TA-1 6 mg/kg s.c. daily, Pac 10 + Ele 10 mg/kg co-i.v. Days 1, 7, 13): 55.67%
- PI (TW), percent inhibition of tumor weight vs vehicle (low-dose arms: TA-1 6 mg/kg s.c. daily, Pac 10 + Ele 10 mg/kg co-i.v. Days 1, 7, 13, listed as Group 2): 55.67%
- mean tumor volume reduced in comparison to that of the vehicle control group (throughout the course of the study, TA-1 6 mg/kg s.c. daily): more than 50%

From patent US20100317583A1, “TREATMENT OF MELANOMA WITH ALPHA THYMOSIN PEPTIDES IN COMBINATION WITH AN ANTINEOPLASTIC HEAT SHOCK APOPTOSIS ACTIVATOR (HSAA)” (SciClone Pharmaceuticals, Inc., priority 2007, published 2010)
